# Activity calls are given as the source filed them.
# Assays:
# [1] = target: Cytochrome P450 3A4 (Homo sapiens, UniProt P08684); conditions: Potency;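 further: confirmatory qHTS run detecting inhibitors and substrates of CYP3A4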
# [2] = target: Paired box protein Pax-8 (Homo sapiens, UniProt Q06710); experiment: PAX8 transcriptional activity inhibition in RMG-I – RMG-I cells, luciferase, cherry-pick, dose response (AID 687027); format: functional, cell-based;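 further: luciferase reporter driven by Pax8 target thyroperoxidase promoter measured by SteadyGlo luminescence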
# Chain of Paired box protein Pax-8 (Q06710 whole entry): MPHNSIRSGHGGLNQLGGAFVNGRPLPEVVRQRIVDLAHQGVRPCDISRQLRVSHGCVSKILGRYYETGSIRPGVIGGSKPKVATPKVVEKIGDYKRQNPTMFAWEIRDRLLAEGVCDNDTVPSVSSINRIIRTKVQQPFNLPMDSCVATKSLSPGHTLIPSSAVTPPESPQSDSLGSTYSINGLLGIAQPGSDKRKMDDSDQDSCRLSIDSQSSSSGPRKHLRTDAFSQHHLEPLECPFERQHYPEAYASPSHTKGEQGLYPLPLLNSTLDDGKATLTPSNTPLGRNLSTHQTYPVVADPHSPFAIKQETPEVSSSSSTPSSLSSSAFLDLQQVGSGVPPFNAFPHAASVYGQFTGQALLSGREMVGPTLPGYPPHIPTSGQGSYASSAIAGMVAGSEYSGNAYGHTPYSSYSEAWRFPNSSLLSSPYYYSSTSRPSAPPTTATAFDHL
# [3] = target: T1, Microphthalmia-associated transcription factor (Homo sapiens, UniProt O75030); experiment: reducers of TRPM1 reporter luminescence, concentration series – cell-based, SK-MEL-5, cherry-picked, set 3, MITF inhibitor project, dose response (AID 493073); format: functional;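 further: SK-MEL-5 melanoma cells with luciferase driven by the MITF target TRPM1 promoter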
# T1 sequence (O75030 whole entry): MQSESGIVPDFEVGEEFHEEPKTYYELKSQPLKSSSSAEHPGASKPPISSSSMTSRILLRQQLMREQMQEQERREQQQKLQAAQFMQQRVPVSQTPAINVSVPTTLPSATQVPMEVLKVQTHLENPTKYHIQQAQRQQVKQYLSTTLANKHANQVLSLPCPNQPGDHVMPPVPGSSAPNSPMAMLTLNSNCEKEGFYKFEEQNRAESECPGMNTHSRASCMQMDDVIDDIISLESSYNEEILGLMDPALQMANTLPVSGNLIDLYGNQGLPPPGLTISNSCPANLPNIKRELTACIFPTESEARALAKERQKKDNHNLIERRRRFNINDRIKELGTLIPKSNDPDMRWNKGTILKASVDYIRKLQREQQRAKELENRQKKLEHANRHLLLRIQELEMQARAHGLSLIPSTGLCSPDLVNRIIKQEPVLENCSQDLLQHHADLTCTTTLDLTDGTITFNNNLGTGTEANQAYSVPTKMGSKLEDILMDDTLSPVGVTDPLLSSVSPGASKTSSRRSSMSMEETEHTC
# [4] = viability loss in HepG2 hepatoma cells – cell-based, ATP luminescence, cherry-pick, activator set 2, cytotoxicity control, dose response (AID 1053143); format: functional
# [5] = target: T2, E3 ubiquitin-protein ligase XIAP (Homo sapiens, UniProt P98170); experiment: Counter Screen using XIAP-Bir3 for Chemical Antagonists of Bir1/2 domains of IAP-family anti-apoptotic proteins. [Related pubchem assays (depositor defined):AID1018, AID1449, AID1514, AID1638, AID1749, AID1750, AID488957, AID488963]
# T2 sequence (P98170 whole entry): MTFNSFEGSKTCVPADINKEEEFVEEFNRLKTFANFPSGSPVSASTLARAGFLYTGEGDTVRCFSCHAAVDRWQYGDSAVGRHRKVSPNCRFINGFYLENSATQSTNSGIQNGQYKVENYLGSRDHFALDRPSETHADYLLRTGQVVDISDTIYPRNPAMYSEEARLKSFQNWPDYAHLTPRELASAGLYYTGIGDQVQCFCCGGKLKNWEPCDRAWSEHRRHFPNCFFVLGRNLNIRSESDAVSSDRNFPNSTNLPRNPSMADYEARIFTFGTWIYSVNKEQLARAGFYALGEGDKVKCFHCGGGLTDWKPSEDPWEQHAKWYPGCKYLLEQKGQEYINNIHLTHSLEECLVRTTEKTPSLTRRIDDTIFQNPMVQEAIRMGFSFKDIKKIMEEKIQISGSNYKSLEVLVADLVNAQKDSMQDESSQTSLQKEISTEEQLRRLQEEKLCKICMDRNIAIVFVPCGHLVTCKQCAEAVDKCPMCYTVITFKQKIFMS
# [6] = target: T2, E3 ubiquitin-protein ligase XIAP; experiment: small molecules displacing peptide from XIAP – biochemical, IAP family, fluorescence polarization (AID 1018); format: functional
# [7] = target: T3, Protein Tat (Human immunodeficiency virus type 1 group M subtype B (isolate HXB2)(HIV-1), UniProt P04608); format: functional;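 further: tat binding to TAR RNA read out by fluorescence polarization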
# T3 sequence (P04608 whole entry): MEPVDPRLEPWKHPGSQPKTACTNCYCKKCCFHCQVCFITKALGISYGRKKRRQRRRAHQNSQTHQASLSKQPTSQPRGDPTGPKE
# [8] = target: Troponin, cardiac muscle (Homo sapiens, UniProt P19429+P45379+P63316); experiment: Fluorescence-based biochemical high throughput dose response assay for activators of the calcium sensitivity of cardiac Regulated Thin Filaments (RTF). [Related pubchem assays (depositor defined):AID493008, AID493018, AID504382, AID504383]; format: protein-complex assay
# [9] = target: T4, Bcl-2-related protein A1 (Mus musculus, UniProt Q07440); experiment: small-molecule antagonists of Bfl-1/BH3 interaction – biochemical, TR-FRET, mouse Bfl-1, confirmation (AID 621);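 further: TR-FRET binding of GST-Bfl-1 to FITC-labelled Bid peptide via terbium antibody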
# T4 sequence (Q07440 whole entry): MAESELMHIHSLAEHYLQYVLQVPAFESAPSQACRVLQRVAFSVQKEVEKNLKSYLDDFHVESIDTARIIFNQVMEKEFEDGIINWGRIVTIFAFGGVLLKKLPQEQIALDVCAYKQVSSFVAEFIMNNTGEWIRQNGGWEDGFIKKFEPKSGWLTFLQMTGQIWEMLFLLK
# [10] = target: T4, Bcl-2-related protein A1; experiment: Bfl-1 binding inhibitors, SAR follow-up, biochemical, fluorescence polarization (AID 1070)
# [11] = target: Glyceraldehyde-3-phosphate dehydrogenase (Homo sapiens, UniProt P04406)
# Chain of Glyceraldehyde-3-phosphate dehydrogenase (P04406 whole entry): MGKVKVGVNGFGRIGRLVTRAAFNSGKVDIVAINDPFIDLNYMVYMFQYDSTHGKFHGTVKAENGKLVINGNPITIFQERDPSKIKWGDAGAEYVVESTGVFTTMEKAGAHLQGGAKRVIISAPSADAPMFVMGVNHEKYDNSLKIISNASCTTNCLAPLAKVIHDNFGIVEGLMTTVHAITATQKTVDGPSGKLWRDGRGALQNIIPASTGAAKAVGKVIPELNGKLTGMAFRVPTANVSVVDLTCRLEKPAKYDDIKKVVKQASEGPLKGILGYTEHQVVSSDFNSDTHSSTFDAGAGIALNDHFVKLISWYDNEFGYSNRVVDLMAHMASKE
# [12] = toxicity toward HepG2 liver cells – cell-based, plate reader, cherry-pick, antagonist series, cytotoxicity control, dose response (AID 743416); format: functional
# [13] = viability loss in HEK293 cells – cell-based, plate reader, cherry-picked samples, cytotoxicity control, dose response (AID 743446); format: functional
# [14] = blockade of melanocortin 4 receptor signaling – cell-based, plate reader, cherry pick, counter-screen for LGR2 antagonist project, dose response (AID 743444); format: functional;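 further: transfected HEK 293 cells stimulated with alpha-MSH peptide; potency of inhibitors of the alpha-MSH evoked signal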
# [15] = A549 cell cytotoxicity, dose response, cytotoxicity control, plate reader, cherry-pick, antagonist series (AID 743412); format: functional, cell-based
# [16] = blockers of bursicon-stimulated LGR2 cAMP reporter – cell-based, HEK293, CRE-luciferase reporter, cherry pick, set 2, dose response (AID 743343); format: functional;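 further: transfected cells were stimulated with diluted bursicon conditioned medium after compound addition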
# [17] = target: T5, Heat shock factor protein 1 (Mus musculus, UniProt P38532); experiment: decrease of HSF1-responsive luciferase luminescence – cell-based, NIH3T3, dose retest, confirmation (AID 2382); format: functional;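 further: NIH3T3 fibroblasts with HSF1-driven luciferase reporter stressed by proteasome inhibitor MG132; luminescence from HSF1-driven luciferase expression after 8 hours of MG132 stress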
# T5 sequence (P38532 whole entry): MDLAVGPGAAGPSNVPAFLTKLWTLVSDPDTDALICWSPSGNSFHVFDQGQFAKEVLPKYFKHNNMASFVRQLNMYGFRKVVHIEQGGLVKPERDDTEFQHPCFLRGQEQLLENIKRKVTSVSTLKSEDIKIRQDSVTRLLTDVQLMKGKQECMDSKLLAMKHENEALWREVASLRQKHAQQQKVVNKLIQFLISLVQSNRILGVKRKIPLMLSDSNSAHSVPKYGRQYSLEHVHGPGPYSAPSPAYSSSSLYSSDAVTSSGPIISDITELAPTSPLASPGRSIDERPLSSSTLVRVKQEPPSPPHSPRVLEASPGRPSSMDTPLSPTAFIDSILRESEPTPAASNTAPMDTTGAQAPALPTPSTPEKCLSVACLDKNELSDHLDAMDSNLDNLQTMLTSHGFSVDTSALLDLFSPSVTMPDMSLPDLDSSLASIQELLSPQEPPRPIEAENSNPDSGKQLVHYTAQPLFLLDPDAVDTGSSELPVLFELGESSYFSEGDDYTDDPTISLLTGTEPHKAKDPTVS
# Chain of Cytochrome P450 3A4 (P08684 whole entry): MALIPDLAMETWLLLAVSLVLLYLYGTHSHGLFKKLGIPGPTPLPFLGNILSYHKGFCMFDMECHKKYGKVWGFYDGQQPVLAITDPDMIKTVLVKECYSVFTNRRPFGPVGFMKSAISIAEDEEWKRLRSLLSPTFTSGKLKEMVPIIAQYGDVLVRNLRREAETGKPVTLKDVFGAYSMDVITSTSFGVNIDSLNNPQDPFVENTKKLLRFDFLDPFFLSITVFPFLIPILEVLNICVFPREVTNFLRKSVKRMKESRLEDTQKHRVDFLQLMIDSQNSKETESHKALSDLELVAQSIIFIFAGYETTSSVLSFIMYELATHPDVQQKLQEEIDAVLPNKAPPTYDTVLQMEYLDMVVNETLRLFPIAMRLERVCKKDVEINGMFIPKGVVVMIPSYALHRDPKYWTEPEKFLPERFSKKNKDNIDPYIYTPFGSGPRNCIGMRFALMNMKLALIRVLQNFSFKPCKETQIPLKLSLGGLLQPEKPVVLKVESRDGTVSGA
smiles,measurement,setting,value
COc1cc(/C=C/C(=O)N2CCC=CC2=O)cc(OC)c1OC [PIPLARTINE],AC50,[1],0.0501 µM (inconclusive)
same,AC50,[2],2.69 µM (active)
same,AC50,[3],7.4 µM (active)
same,AC50,[4],17.4 µM (active)
O=C(NCc1ccc(Cl)cc1)c1ccc2[nH]cnc2c1,IC50,[5],> 100 µM (inactive)
same,IC50,[6],> 100 µM (not active)
COCOC1CCC2C3CCC4=CC(=O)CCC4=C3C=CC12C (centres undefined),IC50,[7],> 100 µM (active)
CCOc1ccc2ccccc2c1CNCCN1CCOCC1,EC50,[8],> 71.5 µM (inactive)
Cc1nc(NC2CCCCC2)c2nc(-c3ccccc3)n(CCN3CCCC3)c2n1,AC50,[1],25.1 µM (inconclusive)
O=C1C(Cl)=C(Cl)C(=O)N1c1c(Cl)cccc1Cl,IC50,[9],30 µM (active)
same,IC50,[10],> 100 µM (not active)
same,IC50,[11],> 100 µM (not active)
O=C1C(Cl)=C(N2CCN(CCOCCO)CC2)C(=O)N1c1ccc([N+](=O)[O-])cc1,IC50,[9],3.51 µM (active)
same,IC50,[10],2.59 µM (active)
same,IC50,[11],> 100 µM (not active)
O=C(Nc1ccccc1)c1cc(C2CCCN(C(=O)C3CC3)C2)on1 (centres undefined),AC50,[12],> 52 µM (inactive)
same,AC50,[13],46.4 µM (active)
same,AC50,[14],4.34 µM (active)
same,AC50,[15],49.2 µM (active)
same,AC50,[16],7.27 µM (active)
Clc1ccc(-n2nnc(-c3cccnc3Cl)n2)cc1Cl,IC50,[9],> 100 µM (not active)
same,IC50,[10],> 100 µM (not active)
CC(C)CC1(C(=O)O)NC(c2ccccc2O)C2C(=O)N(C(C)C)C(=O)C21 (centres undefined),IC50,[5],> 100 µM (inactive)
same,IC50,[6],> 100 µM (not active)
N#CC1(C#N)COC23CCCCC2C1(C#N)C(=N)O3 (centres undefined),EC50,[17],> 195 µM (not active)
same,IC50,[5],> 100 µM (inactive)
same,IC50,[6],> 100 µM (not active)
NC(=O)CNCCC(c1ccccc1)c1ccccc1,AC50,[1],15.8 µM (inconclusive)
Cc1cc(NC(=O)c2ccc(OCC3CCCO3)cc2)ccc1Br (centres undefined),AC50,[4],26 µM (active)

# From ChEMBL document CHEMBL1201862, “PubChem BioAssay data set” (2004)
